# Results published in patent publication US20250136649A1, “HONEY TRUFFLE SWEETENER (HTS) VARIANTS” (MYCOTECHNOLOGY, INC., priority 2023, published 2025).
# Read-outs that look alike come from different tables or passages of the source.
# Columns and labels:
# [1] = test system: sweetness and flavor perception; experiment: Tasting of HTS sweetener blends in citric acid solution, lemon/lime soda, almond milk, chocolate spread; type: in vivo, human
# Method: Sucrose is the standard for sweetness intensity perception in the food and beverage industry. […] With regard to the following Examples 18-38, sucrose equivalent (SE) values of non-sucrose sweeteners were calculated from Dubois et al. (1991) and cross referenced with other studies (Wee, M., Tan, V., & Forde, C. (2018). A Comparison of Psychophysical Dose-Response Behaviour across 16 Sweeteners. Nutrients, 10 (11), 1632).
# DE Walters, FT Orthoefer, GE DuBois, pp. 261-276. Washington, DC: Am. Chem. Soc).
# An HTS sweetness concentration response curve was developed. These values were used to determine approximate sucrose equivalents for the following blending examples (Examples 18-37).
# HTS ((0.0 mg/mL, 0.007 mg/mL, 0.015 mg/mL and 0.035 mg/mL) and sucrose (8% w/w, 6% w/w, 4% w/w, and 2% w/w (respectively)) were added to a citric acid solution. The sweetener mixture was compared to a control with only sucrose added to the matrix. The sweetener mix was expected to be as sweet as or sweeter than the sucrose control for this matrix. Of total perceived sweetness intensity in each of the experimental samples in Table 11, 75% comes from sucrose and 25% comes from HTS, 50% comes from sucrose and 50% comes from HTS, 25% comes from sucrose and 75% comes from HTS, respectively.
# HTS ((0.0 mg/mL, 0.008 mg/mL, 0.023 mg/mL and 0.064 mg/mL) and sucrose (10% w/w, 7.5% w/w, 5% w/w, and 2.5% w/w (respectively)) were added to a lemon/lime soda. The sweetener mixture was compared to a control with only sucrose added to the matrix. The sweetener mix was expected to be as sweet as or sweeter than the sucrose control for this matrix. Of total perceived sweetness intensity in each of the experimental samples in Table 12, 75% comes from sucrose and 25% comes from HTS, 50% comes from sucrose and 50% comes from HTS, 25% comes from sucrose and 75% comes from HTS, respectively.
# HTS ((0.0 mg/mL, 0.005 mg/mL, 0.007 mg/mL and 0.010 mg/mL) and sucrose (4% w/w, 3.0% w/w, 2% w/w, and 1.0% w/w (respectively)) were added to an unsweetened almond milk. The sweetener mixture was compared to a control with only sucrose added to the matrix. The sweetener mix was expected to be as sweet as or sweeter than the control for this matrix. Of total perceived sweetness intensity in each of the experimental samples in Table 13, 75% comes from sucrose and 25% comes from HTS, 50% comes from sucrose and 50% comes from HTS, 25% comes from sucrose and 75% comes from HTS, respectively.
# HTS ((0.0 mg/mL, 0.008 mg/mL, 0.023 mg/mL and 0.064 mg/mL) and sucrose (45% w/w, 33.8% w/w, 23% w/w, and 11.3% w/w (respectively)) were added to a chocolate spread. The sweetener mixture was compared to a control with only sucrose added to the matrix. The sweetener mix was expected to be as sweet as or sweeter than the control for this matrix. Of total perceived sweetness intensity in each of the experimental samples in Table 14, 75% comes from sucrose and 25% comes from HTS, 50% comes from sucrose and 50% comes from HTS, 25% comes from sucrose and 75% comes from HTS, respectively.
# HTS ((0.0 mg/mL, 0.007 mg/mL, 0.015 mg/mL and 0.035 mg/mL) and erythritol (11.43% w/w, 8.57% w/w, 5.71% w/w, and 2.86% w/w (respectively)) were added to a citric acid solution. The sweetener mixture was compared to a control with only erythritol added to the matrix. The sweetener mix was expected to be as sweet as or sweeter than the control for this matrix. Of total perceived sweetness intensity in each of the experimental samples in Table 15, 75% comes from erythritol and 25% comes from HTS, 50% comes from erythritol and 50% comes from HTS, 25% comes from erythritol and 75% comes from HTS, respectively.
# sweet taste = settings: cited from earlier work; for potency curve multiplier relative to sucrose: linear potency curve similar to sucrose (DuBois 1991)
# perception of the flavor = experiment: Tasting of HTS flavor modifying compositions in a mock beverage matrix; type: in vivo, human; settings: pH about 3, 0.25% w/w lemon/lime flavor, HTS 0.004 mg/mL
# Method: HTS (0.004 mg/mL) and sucrose (10% w/w concentration) were added to a mock beverage matrix (citric acid, a flavor and carbonation). […] HTS and sucrose were added to hit a target of 10% w/w sucrose equivalent sweetness. The HTS/sucrose mixture was compared to an unsweetened control, an unsweetened control+0.004 mg/mL HTS, and a sucrose sweetened control (10% w/w concentration of sucrose).
# (§1) HTS (0.004 mg/mL) and erythritol (13.3% w/w concentration) were added to a mock beverage matrix (citric acid, a flavor, and carbonation). […] HTS and erythritol were added to hit a target of 10% w/w sucrose equivalent sweetness. The HTS/erythritol mixture was compared to an unsweetened control, an unsweetened control+0.004 mg/mL HTS, and an erythritol sweetened control (13.3% w/w concentration).
# as §1, with “sucralose (0.0387%” for “erythritol (13.3%”, “sucralose” for “erythritol”, “HTS/sucralose” for “HTS/erythritol”, “a sucralose” for “an erythritol”, “(0.0387%” for “(13.3%”
# HTS (0.004 mg/mL) and stevia (0.0395% w/w concentration) were added to a mock beverage matrix (citric acid, a flavor, and carbonation). […] HTS and stevia were added to hit a target of 10% w/w sucrose equivalent sweetness. […]
# sweet taste response = experiment: Concentration-response functions for sweet taste (Opertech Bio); type: in vivo; settings: for Relative to Sucrose (mM): equivalency to sucrose on a molar basis; for Relative to Sucrose (mg/ml): equivalency to sucrose on a weight basis; for EC50: half-maximal sweet taste response
# Method: Each data point in the curves for mycodulcein, aspartame, thaumatin, rebaudioside A was calculated as the average across 32 replicates and averaged across 16 replicates for the sucrose curve; error bars are SEM. Points for water and sucrose controls were similarly calculated as the average across 128 and 64 replicates, respectively. Curves were fit by non-linear regression.
# Opertech Bio (Philadelphia, PA) performed a quantitative characterization of the concentration-dependence of the taste properties of the purified his-tagged mycodulcein HTS (SEQ ID NO:141 with His-tag, SEQ ID NO:142) obtained from E. coli as described in Example 5 and purified as described in Example 4. The sweet-taste potency and relative efficacy of mycodulcein (HTS) was compared with sucrose and with other sweeteners thaumatin, rebaudioside A, and aspartame. Control standards were solutions of 200 mM sucrose, 100 mM NaCl, 0.5 mM quinine, and 10 mM citric acid. […] Each data point in the curves for mycodulcein, aspartame, thaumatin, and rebaudioside A was calculated as the average across 32 replicates and averaged across 16 replicates for the sucrose curve; error bars are SEM. Points for water and sucrose controls were similarly calculated as the average across 128 and 64 replicates, respectively. Curves were fit by non-linear regression.
# The concentrations that elicit half-maximal sweet taste response (EC50s, or potencies) were derived from the nonlinear regression. […] Also provided are the equivalencies to sucrose on a molar basis and on a weight basis.
# sweet sensation = experiment: CATA time intensity of the sweet sensation in water; type: in vivo, human
# Method: Evaluation of thaumatin, sucrose, and his-tagged mycodulcein (HTS) was carried out using a CATA (click all that apply) time intensity of the sweet sensation of named analytes in water at 0.045 mg/mL for proteins and 10% sucrose. Methodology: Time Intensity Technique; Data collection software: EyeQuestion, responses recorded every 2.57 seconds; Scaling Method: a 15-point sweet scale, e.g., score 5=5% sucrose, score 10=10% sucrose; Evaluation Protocol: small volume sip, tilt and spit test. There were 3-6 panelists and 2 replicates. All samples were blinded and presented with randomized 3-digit codes. Training Strategies: An intense training on sweet scale over 6 weeks on 15-point sweet scale to confidently assign sweet values. Due to unique sweet behavioral patterns, it is necessary to train time intensity principles over 3 weeks. Samples were tasted with a stopwatch to note times and help reach a consensus. # of Panelists: 3-6, # of replications: 2. All samples were blinded and presented with randomized 3-digit codes. Statistical analysis: due to the small # of panelists, a statistical analysis cannot be performed.
# [2] = nonlinear regression, read-out: EC50 (molar units)
compound,measurement,setting,value
"O=C(CO)C(O)C(O)C(O)CO (stereo not shown) [Allulose, allulose]",Observations,"[1]; lemon/lime soda, allulose w/w / HTS mg/mL: control 14.3%/0.0, 50/50 7.14%/0.023",Muted citrus flavor and sweetness intensity.
same,potency curve multiplier relative to sucrose,sweet taste,0.7 ×
"OC[C@@H](O)[C@@H](O)CO [Erythritol, erythritol]",Observations,perception of the flavor; erythritol 13.30% w/w,"More sour, bitter, mineral, mouth drying,"
same,Observations,"[1]; chocolate spread, erythritol w/w / HTS mg/mL: control 45%/0.0, 75/25 33.8%/0.008, 50/50 23%/0.023, 25/75 11.3%/0.064","Brief initial sweetness, mouth cooling, cocoa"
same,Observations,"[1]; citric acid solution, erythritol w/w / HTS mg/mL: control 11.43%/0, 75/25 8.57%/0.007, 50/50 5.71%/0.015, 25/75 2.86%/0.035",Reduced sour intensity compared to sucrose
same,Observations,"[1]; lemon/lime soda, erythritol w/w / HTS mg/mL: control 13.30%/0.0, 75/25 9.31%/0.008, 50/50 6.90%/0.023, 25/75 3.10%/0.064",Reduced citrus flavor intensity. Strong mouth
same,potency curve multiplier relative to sucrose,sweet taste,0.7 ×
"C=C1C[C@@]23CC[C@H]4[C@@](C)(CCC[C@@]4(C)C(=O)O[C@@H]4O[C@H](CO)[C@@H](O)[C@H](O)[C@H]4O)[C@@H]2CC[C@]1(O[C@@H]1O[C@H](CO)[C@@H](O)[C@H](O[C@@H]2O[C@H](CO)[C@@H](O)[C@H](O)[C@H]2O)[C@H]1O[C@@H]1O[C@H](CO)[C@@H](O)[C@H](O)[C@H]1O)C3 [REB, rebaudioside A]",Relative to Sucrose (mM),sweet taste response,857
same,Relative to Sucrose (mg/ml),sweet taste response,300
same,EC50,sweet taste response,41.1 µg/mL
same,EC50,sweet taste response; [2],42 µM
"OC[C@H]1O[C@@](CO)(O[C@H]2O[C@H](CO)[C@@H](O)[C@H](O)[C@H]2O)[C@@H](O)[C@@H]1O [SUC, sucrose]",Observations,"[1]; almond milk, sucrose w/w / HTS mg/mL: control 4%/0.0, 75/25 3.0%/0.005, 50/50 2%/0.007, 25/75 1.0%/0.010","Pleasantly sweetened almond milk, creamy"
same,Observations,"[1]; citric acid solution, sucrose w/w / HTS mg/mL: control 8%/0.0, 75/25 6%/0.007, 50/50 4%/0.015, 25/75 2%/0.035",Reminiscent of sweet dessert and ice
same,Observations,"[1]; lemon/lime soda, sucrose w/w / HTS mg/mL: control 10%/0.0, 75/25 7.5%/0.008, 50/50 5%/0.023, 25/75 2.5%/0.064","Good, sweet to sour balance and pleasant"
"OC[C@H]1O[C@H](O[C@]2(CCl)O[C@H](CCl)[C@@H](O)[C@@H]2O)[C@H](O)[C@@H](O)[C@H]1Cl [Sucralose, sucralose]",Observations,perception of the flavor; sucralose 0.0387% w/w,"Sweet linger, little flavor carry over"
same,Observations,"[1]; almond milk, sucralose w/w / HTS mg/mL: control 0.0053%/0.0, 75/25 0.0037%/0.005, 50/50 0.0023%/0.007, 25/75 0.0011%/0.010",Pleasantly sweetened almond milk. Little
same,Observations,"[1]; chocolate spread, sucralose w/w / HTS mg/mL: control 0.0387%/0.0, 75/25 0.0247%/0.008, 50/50 0.0096%/0.023, 25/75 0.0030%/0.064",Reduced cocoa flavor intensity compared to sucrose
same,Observations,"[1]; citric acid solution, sucralose w/w / HTS mg/mL: control 0.0170%/0.0, 75/25 0.0100%/0.007, 50/50 0.0053%/0.015, 25/75 0.0023%/0.035",Intense initial sweetness that overpowers acidity.
same,Observations,"[1]; lemon/lime soda, sucralose w/w / HTS mg/mL: control 0.0387%/0.0, 75/25 0.0247%/0.008, 50/50 0.0096%/0.023, 25/75 0.0030%/0.064",Intense initial sourness. Strong sweet aftertaste.
"brazzein (QDKCKKVYENYPVSKCQLANQCNYDCKLDKHARSGECFYDEKRNLQCICDYCEY; UniProt P56552 1-54, looked up) [sweet protein]",times sweeter than sucrose on a gram basis,sweet taste; background,500 times
monellin,times sweeter than sucrose on a molar basis,sweet taste; background,"100,000 times"
thaumatin [THN],Relative to Sucrose (mM),sweet taste response,120000
same,Relative to Sucrose (mg/ml),sweet taste response,1865
same,EC50,sweet taste response,6.6 µg/mL
same,EC50,sweet taste response; [2],0.3 µM
same,intensity when sucrose reaches threshold level,sweet sensation; 0.045 mg/mL in water,low-moderate intensity
same,slope of time intensity curve,"sweet sensation; 0.045 mg/mL in water vs 10% sucrose, longer peak time and more gradual/longer decline",flatter slope
same,maximum intensity (Imax) higher than sucrose,sweet sensation; 0.045 mg/mL protein in water vs 10% sucrose,approximately 1 point on the 15 point scale
same,"potency, sweeter than sucrose on a molar basis",sweet sensation; time intensity experiment,"approximately 120,000 ×"
same,"potency, sweeter than sucrose on a weight basis",sweet sensation; time intensity experiment,~3000 ×
same,times sweeter than sucrose on a gram basis,sweet taste; background,3000 times
